Here are results for six molecules from ChEMBL document CHEMBL5465560, “Selectivity Literature for EUbOPEN Chemogenomic Library” (2024).

Experiment [1] deals with T1, Serine/threonine-protein kinase tousled-like 1 (Homo sapiens) (UniProt Q9UKI8).
T1 sequence (whole entry): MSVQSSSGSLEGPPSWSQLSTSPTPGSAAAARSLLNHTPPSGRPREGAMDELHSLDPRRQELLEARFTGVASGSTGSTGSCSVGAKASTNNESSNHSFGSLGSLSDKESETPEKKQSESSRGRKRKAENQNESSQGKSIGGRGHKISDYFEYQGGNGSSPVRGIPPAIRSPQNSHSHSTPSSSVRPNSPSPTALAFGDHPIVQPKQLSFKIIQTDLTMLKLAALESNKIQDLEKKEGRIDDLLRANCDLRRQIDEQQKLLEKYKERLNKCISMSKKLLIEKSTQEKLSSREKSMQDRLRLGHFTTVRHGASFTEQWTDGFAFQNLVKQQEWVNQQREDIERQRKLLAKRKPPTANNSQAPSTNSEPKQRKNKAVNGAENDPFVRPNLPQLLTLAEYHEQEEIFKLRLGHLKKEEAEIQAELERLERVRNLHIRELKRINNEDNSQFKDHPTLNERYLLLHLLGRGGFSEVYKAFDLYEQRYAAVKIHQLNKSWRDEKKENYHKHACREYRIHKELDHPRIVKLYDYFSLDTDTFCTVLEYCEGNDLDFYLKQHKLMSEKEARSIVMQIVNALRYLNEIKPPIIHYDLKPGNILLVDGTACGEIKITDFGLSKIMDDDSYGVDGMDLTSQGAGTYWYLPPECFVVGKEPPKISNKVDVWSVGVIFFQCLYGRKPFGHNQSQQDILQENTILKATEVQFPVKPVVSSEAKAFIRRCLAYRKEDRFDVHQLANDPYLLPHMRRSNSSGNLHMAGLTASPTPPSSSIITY
Description: Selectivity interaction (Kinase panel (KiNativ target engagement assay in Jurkat cells)) EUB0001635a TLK1. It counts as cell-based. The conditions noted are these: at 1 µM.

Experiment [2] concerns the target Mitogen-activated protein kinase 14 (Homo sapiens, UniProt Q16539). The experiment can be described thus: Selectivity interaction (KinomeScan (DiscoverX)) EUB0000666a MAPK14. Conditions: at 10 µM.
For experiment [3], the target named is T2, Serine/threonine-protein kinase haspin (Homo sapiens) (UniProt Q8TF76).
T2 sequence (whole entry): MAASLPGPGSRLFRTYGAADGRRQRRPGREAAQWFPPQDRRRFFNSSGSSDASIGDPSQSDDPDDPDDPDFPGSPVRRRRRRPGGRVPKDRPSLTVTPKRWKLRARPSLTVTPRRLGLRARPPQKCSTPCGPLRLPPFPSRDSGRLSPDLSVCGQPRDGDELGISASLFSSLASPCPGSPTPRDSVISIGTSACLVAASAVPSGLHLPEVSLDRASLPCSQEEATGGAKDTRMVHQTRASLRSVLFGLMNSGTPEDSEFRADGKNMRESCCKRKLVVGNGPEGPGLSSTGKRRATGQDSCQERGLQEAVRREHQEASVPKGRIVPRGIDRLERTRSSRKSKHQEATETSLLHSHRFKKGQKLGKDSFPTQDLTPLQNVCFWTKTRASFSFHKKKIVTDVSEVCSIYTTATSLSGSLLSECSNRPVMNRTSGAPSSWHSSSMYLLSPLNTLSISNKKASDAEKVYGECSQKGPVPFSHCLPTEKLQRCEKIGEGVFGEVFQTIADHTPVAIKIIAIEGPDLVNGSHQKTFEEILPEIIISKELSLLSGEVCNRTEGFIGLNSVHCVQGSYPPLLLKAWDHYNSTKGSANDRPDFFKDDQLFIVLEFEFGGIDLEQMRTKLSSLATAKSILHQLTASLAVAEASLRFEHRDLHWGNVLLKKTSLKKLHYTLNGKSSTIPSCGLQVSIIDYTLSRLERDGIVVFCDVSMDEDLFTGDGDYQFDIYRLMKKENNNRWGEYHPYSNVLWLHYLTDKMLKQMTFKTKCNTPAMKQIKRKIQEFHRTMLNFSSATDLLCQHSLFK
Description: Selectivity interaction (Kinase panel (DSF assay)) EUB0001558a GSG2. In general terms: Differential scanning fluorimetry follows unfolding on heating by fluorescence.

The target of experiment [4] is T3, Ephrin type-A receptor 1 (Homo sapiens) (UniProt P21709).
T3 sequence (whole entry): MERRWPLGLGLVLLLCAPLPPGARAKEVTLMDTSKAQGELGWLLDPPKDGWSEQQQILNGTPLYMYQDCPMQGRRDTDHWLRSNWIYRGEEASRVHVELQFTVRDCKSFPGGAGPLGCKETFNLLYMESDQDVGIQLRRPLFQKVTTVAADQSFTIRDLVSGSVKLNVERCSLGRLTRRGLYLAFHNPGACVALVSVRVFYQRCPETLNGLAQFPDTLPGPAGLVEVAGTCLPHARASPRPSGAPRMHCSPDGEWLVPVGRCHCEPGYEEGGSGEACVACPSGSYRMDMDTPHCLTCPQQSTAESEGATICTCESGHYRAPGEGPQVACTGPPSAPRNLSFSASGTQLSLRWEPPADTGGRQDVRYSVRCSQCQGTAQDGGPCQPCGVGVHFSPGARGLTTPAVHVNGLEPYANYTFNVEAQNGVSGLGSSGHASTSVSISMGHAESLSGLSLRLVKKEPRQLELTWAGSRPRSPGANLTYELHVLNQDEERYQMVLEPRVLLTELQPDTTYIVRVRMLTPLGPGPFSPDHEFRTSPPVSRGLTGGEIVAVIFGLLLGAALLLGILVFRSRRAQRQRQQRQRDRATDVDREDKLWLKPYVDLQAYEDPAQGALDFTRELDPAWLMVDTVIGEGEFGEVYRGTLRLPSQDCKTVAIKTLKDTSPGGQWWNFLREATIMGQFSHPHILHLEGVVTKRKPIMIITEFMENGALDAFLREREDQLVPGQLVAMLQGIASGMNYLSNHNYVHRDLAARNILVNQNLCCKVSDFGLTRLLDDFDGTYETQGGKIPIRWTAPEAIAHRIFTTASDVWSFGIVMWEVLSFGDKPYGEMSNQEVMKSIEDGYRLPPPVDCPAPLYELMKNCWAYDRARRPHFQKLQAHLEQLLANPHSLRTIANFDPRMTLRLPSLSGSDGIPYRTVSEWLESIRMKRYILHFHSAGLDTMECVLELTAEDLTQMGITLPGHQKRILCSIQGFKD
Description: Selectivity interaction (KinomeScan (DiscoverX)) EUB0001619a EPHA1. The conditions noted are these: at 1 µM.

Experiment [5] addresses Mitogen-activated protein kinase 1 (Homo sapiens, UniProt P28482). The experiment can be described thus: Selectivity interaction (ActivX KiNativ screen (kinase selectivity in THP-1 cell lysates)) EUB0000639a MAPK1. Conditions: lysate. It counts as subcellular.
Experiment [6] addresses Atypical kinase COQ8A, mitochondrial (Homo sapiens, UniProt Q8NI60). The conditions noted are these: at 10 µM.

The structures appear in SMILES notation.

Sequence of Mitogen-activated protein kinase 1 (P28482 whole entry): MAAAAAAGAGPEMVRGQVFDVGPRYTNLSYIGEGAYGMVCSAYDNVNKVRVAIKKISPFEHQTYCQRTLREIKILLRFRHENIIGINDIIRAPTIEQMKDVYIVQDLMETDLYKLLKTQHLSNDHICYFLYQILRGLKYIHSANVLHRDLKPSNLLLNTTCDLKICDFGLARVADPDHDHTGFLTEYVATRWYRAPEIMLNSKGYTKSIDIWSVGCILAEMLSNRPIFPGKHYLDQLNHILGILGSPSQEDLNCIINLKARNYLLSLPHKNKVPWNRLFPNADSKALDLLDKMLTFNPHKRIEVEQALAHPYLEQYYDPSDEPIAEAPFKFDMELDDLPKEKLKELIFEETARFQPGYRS
Sequence of Atypical kinase COQ8A, mitochondrial (Q8NI60 163-647 limits assumed): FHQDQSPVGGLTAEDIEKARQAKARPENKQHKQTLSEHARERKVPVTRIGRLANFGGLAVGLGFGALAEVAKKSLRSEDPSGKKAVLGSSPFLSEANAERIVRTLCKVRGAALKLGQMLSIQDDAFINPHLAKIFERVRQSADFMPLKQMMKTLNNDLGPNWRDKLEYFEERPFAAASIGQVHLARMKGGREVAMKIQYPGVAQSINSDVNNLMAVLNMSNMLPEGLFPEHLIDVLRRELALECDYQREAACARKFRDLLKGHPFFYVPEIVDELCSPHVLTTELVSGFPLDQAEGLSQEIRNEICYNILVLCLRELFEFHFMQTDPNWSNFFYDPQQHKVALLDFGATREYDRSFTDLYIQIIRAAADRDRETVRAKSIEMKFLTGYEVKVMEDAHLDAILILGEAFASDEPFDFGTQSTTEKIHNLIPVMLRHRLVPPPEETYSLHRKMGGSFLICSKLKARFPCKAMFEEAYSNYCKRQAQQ
Sequence of Mitogen-activated protein kinase 14 (Q16539 whole entry): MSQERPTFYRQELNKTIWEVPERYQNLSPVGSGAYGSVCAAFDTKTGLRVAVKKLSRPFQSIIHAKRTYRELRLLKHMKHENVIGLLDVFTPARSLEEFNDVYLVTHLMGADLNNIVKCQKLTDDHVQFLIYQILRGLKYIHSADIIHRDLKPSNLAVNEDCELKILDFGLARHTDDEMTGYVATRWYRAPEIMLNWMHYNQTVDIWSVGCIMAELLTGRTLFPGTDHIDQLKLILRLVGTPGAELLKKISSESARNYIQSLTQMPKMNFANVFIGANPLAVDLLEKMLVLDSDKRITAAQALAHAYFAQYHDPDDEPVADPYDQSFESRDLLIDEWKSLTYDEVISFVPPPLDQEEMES

Regarding `C=CC(=O)Nc1ccc(C(=O)Nc2[nH]nc3c2CN(C(=O)N[C@H](CN(C)C)c2ccccc2)C3(C)C)cc1`, the % of engagement in experiment [1] (Selectivity number of off-targets 0.0, Selectivity number of targets 233.0, Source Knowledge https://www.sciencedirect.com/science/article/pii/S2451945619300674?via%3Dihub) was 12.6%; in experiment [1] it was 13.2%. Regarding `O=C(NOC[C@H](O)CO)c1ccc(F)c(F)c1Nc1ccc(I)cc1F`, in experiment [2], the % of control amounted to 100%. As to `CC(C)(O)[C@H](F)CN1Cc2cc(NC(=O)c3cnn4cccnc34)c(N3CCOCC3)cc2C1=O`, in experiment [3], the dTM was found to be 0.8 K. Consider `N#Cc1cccc(-c2c[nH]c3ncnc(N4CCOCC4)c23)c1`, for which the % of control in experiment [4] is 100%. As to `CC[C@@H]1[C@H](F)C(=O)N[C@@H]1COc1nccc2cc(C(N)=O)c(OC)cc12` [ZIMLOVISERTIB], the % of inhibition was -8.4% in experiment [5] (at 0.01 µM); -6% in experiment [5] (at 0.04 µM); 0.3% in experiment [5] (at 0.2 µM); -16.3% in experiment [5] (at 1 µM); -11.6% in experiment [5] (at 5 µM). In the case of `CCN(CC)CCCCNc1ncc2cc(-c3cc(OC)cc(OC)c3)c(NC(=O)NC(C)(C)C)nc2n1`, the % of control in experiment [6] was determined as 100%.
